Experimental findings from the NIST ThermoML archive (doi:10.1016/j.jct.2012.09.017) are described below.

Numbers after ± are expanded uncertainties.

The nature of the data set: activity coefficient (dimensionless); of the first substance listed, at infinite dilution; xn = mol fraction of the nth substance listed. As to conditions: 101 kPa, Liquid, Chromatography, x1 = 0.

On to `CCCCCCCC` [octane] + CCCC[N+]1(C)CCCC1.O=C1O[B-]2(OC1=O)OC(=O)C(=O)O2, for which the activity coefficient came out at 88.8 ± 4.6 (333.15 K); 77.7 ± 4 (343.15 K); 69.3 ± 3.6 (353.15 K); 61.9 ± 3.2 (363.15 K); 56.1 ± 2.9 (373.15 K).

With `CCO` [ethanol] + CCCC[N+]1(C)CCCC1.N#C[B-](C#N)(C#N)C#N, the activity coefficient (318.15 K) worked out at 1.32 ± 0.06; the activity coefficient (323.15 K) was determined as 1.27 ± 0.06; the activity coefficient (333.15 K) amounted to 1.17 ± 0.05; the activity coefficient (343.15 K) is 1.09 ± 0.05; the activity coefficient (353.15 K) stood at 1.02 ± 0.05.

For `COCCOC` [1,2-dimethoxyethane] + CCCC[N+]1(C)CCCC1.N#C[B-](C#N)(C#N)C#N, the activity coefficient runs as follows: (318.15 K) 0.506 ± 0.031; (323.15 K) 0.524 ± 0.031; (333.15 K) 0.56 ± 0.032; (343.15 K) 0.594 ± 0.032; (353.15 K) 0.628 ± 0.033.

`COC(=O)OC` [dimethyl carbonate] + CCCC[N+]1(C)CCCC1.O=C1O[B-]2(OC1=O)OC(=O)C(=O)O2: the activity coefficient is, setting by setting: (333.15 K) 0.853 ± 0.039; (343.15 K) 0.861 ± 0.039; (353.15 K) 0.87 ± 0.04; (363.15 K) 0.877 ± 0.04; (373.15 K) 0.884 ± 0.04.

Regarding `CCOC(C)=O` [ethyl acetate] + CCCC[N+]1(C)CCCC1.O=C1O[B-]2(OC1=O)OC(=O)C(=O)O2, the activity coefficient reads like this: (333.15 K) 1.75 ± 0.09; (343.15 K) 1.74 ± 0.09; (353.15 K) 1.74 ± 0.09; (363.15 K) 1.73 ± 0.09; (373.15 K) 1.73 ± 0.09.

Consider `FC(F)(F)C(Cl)Br` (stereo not drawn) [1-bromo-1-chloro-2,2,2-trifluoroethane] + CCCC[N+]1(C)CCCC1.N#C[B-](C#N)(C#N)C#N, for which the activity coefficient came to 0.842 ± 0.039 (318.15 K); 0.869 ± 0.04 (323.15 K); 0.923 ± 0.041 (333.15 K); 0.977 ± 0.043 (343.15 K); 1.03 ± 0.05 (353.15 K).

For `ClC(Cl)(Cl)Cl` [tetrachloromethane] + CCCC[N+]1(C)CCCC1.O=C1O[B-]2(OC1=O)OC(=O)C(=O)O2, the activity coefficient is, setting by setting: (333.15 K) 4.23 ± 0.22; (343.15 K) 4.14 ± 0.21; (353.15 K) 4.07 ± 0.21; (363.15 K) 4 ± 0.21; (373.15 K) 3.95 ± 0.2.

As for `CC(C)O` [propan-2-ol] + CCCC[N+]1(C)CCCC1.N#C[B-](C#N)(C#N)C#N, the activity coefficient was determined as 1.35 ± 0.06 (333.15 K), 1.25 ± 0.06 (343.15 K) and 1.16 ± 0.05 (353.15 K).

As to `ClC(Cl)Cl` [trichloromethane] + CCCC[N+]1(C)CCCC1.N#C[B-](C#N)(C#N)C#N, the activity coefficient reads like this: (318.15 K) 0.609 ± 0.033; (323.15 K) 0.623 ± 0.033; (333.15 K) 0.654 ± 0.034; (343.15 K) 0.683 ± 0.034; (353.15 K) 0.711 ± 0.035.

`CCO` [ethanol] + CCCC[N+]1(C)CCCC1.O=C1O[B-]2(OC1=O)OC(=O)C(=O)O2: the activity coefficient turned out to be 1.92 ± 0.1 (333.15 K); 1.75 ± 0.09 (343.15 K); 1.61 ± 0.08 (353.15 K); 1.49 ± 0.07 (363.15 K); 1.38 ± 0.07 (373.15 K).

`CCOC(C)=O` [ethyl acetate] + CCCC[N+]1(C)CCCC1.N#C[B-](C#N)(C#N)C#N: the activity coefficient reads like this: (318.15 K) 0.942 ± 0.042; (323.15 K) 0.949 ± 0.042; (333.15 K) 0.967 ± 0.043; (343.15 K) 0.982 ± 0.043; (353.15 K) 1 ± 0.04.

`COC(C)(C)C` [2-methoxy-2-methylpropane] + CCCC[N+]1(C)CCCC1.N#C[B-](C#N)(C#N)C#N: the activity coefficient is, setting by setting: (318.15 K) 2.39 ± 0.12; (323.15 K) 2.41 ± 0.12; (333.15 K) 2.45 ± 0.13; (343.15 K) 2.48 ± 0.13; (353.15 K) 2.52 ± 0.13.

With `c1ccccc1` [benzene] + CCCC[N+]1(C)CCCC1.N#C[B-](C#N)(C#N)C#N, the activity coefficient (318.15 K) was found to be 0.833 ± 0.039; the activity coefficient (323.15 K) came to 0.841 ± 0.039; the activity coefficient (333.15 K) is 0.858 ± 0.039; the activity coefficient (343.15 K) amounted to 0.874 ± 0.04; the activity coefficient (353.15 K) is 0.891 ± 0.04.

On to `CCCO` [propan-1-ol] + CCCC[N+]1(C)CCCC1.N#C[B-](C#N)(C#N)C#N, for which the activity coefficient was determined as 1.53 ± 0.07 (318.15 K); 1.46 ± 0.07 (323.15 K); 1.34 ± 0.06 (333.15 K); 1.24 ± 0.06 (343.15 K); 1.15 ± 0.05 (353.15 K).

In the case of `CC(C)=O` [acetone] + CCCC[N+]1(C)CCCC1.N#C[B-](C#N)(C#N)C#N, the activity coefficient (318.15 K) stood at 0.445 ± 0.03; the activity coefficient (323.15 K) worked out at 0.45 ± 0.03; the activity coefficient (333.15 K) turned out to be 0.461 ± 0.03; the activity coefficient (343.15 K) came to 0.471 ± 0.03; the activity coefficient (353.15 K) was 0.481 ± 0.03.

With `CC#N` [acetonitrile] + CCCC[N+]1(C)CCCC1.N#C[B-](C#N)(C#N)C#N, the activity coefficient runs as follows: (318.15 K) 0.425 ± 0.029; (323.15 K) 0.426 ± 0.029; (333.15 K) 0.427 ± 0.029; (343.15 K) 0.429 ± 0.029; (353.15 K) 0.43 ± 0.029.

Take `FC(F)(F)C(Cl)Br` (stereo not drawn) [1-bromo-1-chloro-2,2,2-trifluoroethane] + CCCC[N+]1(C)CCCC1.O=C1O[B-]2(OC1=O)OC(=O)C(=O)O2: the activity coefficient runs as follows: (333.15 K) 1.61 ± 0.08; (343.15 K) 1.66 ± 0.08; (353.15 K) 1.72 ± 0.09; (363.15 K) 1.77 ± 0.09; (373.15 K) 1.82 ± 0.09.

With `C[N+](=O)[O-]` [nitromethane] + CCCC[N+]1(C)CCCC1.N#C[B-](C#N)(C#N)C#N, the activity coefficient was determined as 0.427 ± 0.029 (318.15 K); 0.427 ± 0.029 (323.15 K); 0.429 ± 0.029 (333.15 K); 0.431 ± 0.029 (343.15 K); 0.433 ± 0.029 (353.15 K).

Take `ClC(Cl)Cl` [trichloromethane] + CCCC[N+]1(C)CCCC1.O=C1O[B-]2(OC1=O)OC(=O)C(=O)O2: the activity coefficient runs as follows: (333.15 K) 1 ± 0.04; (343.15 K) 1.03 ± 0.05; (353.15 K) 1.06 ± 0.05; (363.15 K) 1.08 ± 0.05; (373.15 K) 1.11 ± 0.05.

In the case of `C=CCCCCCC` [oct-1-ene] + CCCC[N+]1(C)CCCC1.N#C[B-](C#N)(C#N)C#N, the activity coefficient by setting is: (318.15 K) 15.8 ± 0.8; (323.15 K) 15.4 ± 0.8; (333.15 K) 14.7 ± 0.8; (343.15 K) 14 ± 0.7; (353.15 K) 13.4 ± 0.7.

Regarding `c1ccsc1` [thiophene] + CCCC[N+]1(C)CCCC1.O=C1O[B-]2(OC1=O)OC(=O)C(=O)O2, the activity coefficient by setting is: (333.15 K) 1.13 ± 0.05; (343.15 K) 1.12 ± 0.05; (353.15 K) 1.12 ± 0.05; (363.15 K) 1.13 ± 0.05; (373.15 K) 1.13 ± 0.05.

Turning to `COC(C)(C)C` [2-methoxy-2-methylpropane] + CCCC[N+]1(C)CCCC1.O=C1O[B-]2(OC1=O)OC(=O)C(=O)O2, the activity coefficient runs as follows: (333.15 K) 6.34 ± 0.33; (343.15 K) 6.06 ± 0.31; (353.15 K) 5.87 ± 0.3; (363.15 K) 5.7 ± 0.29; (373.15 K) 5.57 ± 0.29.

`CCCCCCCC` [octane] + CCCC[N+]1(C)CCCC1.N#C[B-](C#N)(C#N)C#N: the activity coefficient is, setting by setting: (318.15 K) 33.2 ± 1.7; (323.15 K) 31.8 ± 1.6; (333.15 K) 29.4 ± 1.5; (343.15 K) 27.4 ± 1.4; (353.15 K) 25.6 ± 1.3.

Turning to `CO` [methanol] + CCCC[N+]1(C)CCCC1.N#C[B-](C#N)(C#N)C#N, the activity coefficient is, setting by setting: (318.15 K) 1.03 ± 0.05; (323.15 K) 0.992 ± 0.043; (333.15 K) 0.931 ± 0.042; (343.15 K) 0.878 ± 0.04; (353.15 K) 0.831 ± 0.039.

As for `COC(C)=O` [methyl ethanoate] + CCCC[N+]1(C)CCCC1.O=C1O[B-]2(OC1=O)OC(=O)C(=O)O2, the activity coefficient is, setting by setting: (333.15 K) 1.03 ± 0.05; (343.15 K) 1.04 ± 0.05; (353.15 K) 1.06 ± 0.05; (363.15 K) 1.08 ± 0.05; (373.15 K) 1.09 ± 0.05.

Turning to `C1CCOC1` [tetrahydrofuran] + CCCC[N+]1(C)CCCC1.O=C1O[B-]2(OC1=O)OC(=O)C(=O)O2, the activity coefficient reads like this: (333.15 K) 1.13 ± 0.05; (343.15 K) 1.14 ± 0.05; (353.15 K) 1.15 ± 0.05; (363.15 K) 1.15 ± 0.05; (373.15 K) 1.16 ± 0.05.

Consider `ClCCl` [dichloromethane] + CCCC[N+]1(C)CCCC1.N#C[B-](C#N)(C#N)C#N, for which the activity coefficient (318.15 K) was 0.536 ± 0.031; the activity coefficient (323.15 K) turned out to be 0.542 ± 0.031; the activity coefficient (333.15 K) stood at 0.59 ± 0.03; the activity coefficient (343.15 K) turned out to be 0.574 ± 0.032; the activity coefficient (353.15 K) is 0.59 ± 0.032.

In the case of `CCCCCCC` [heptane] + CCCC[N+]1(C)CCCC1.O=C1O[B-]2(OC1=O)OC(=O)C(=O)O2, the activity coefficient by setting is: (333.15 K) 62.9 ± 3.3; (343.15 K) 55.4 ± 2.9; (353.15 K) 49.5 ± 2.6; (363.15 K) 44.7 ± 2.3; (373.15 K) 40.8 ± 2.1.

In the case of `ClCCl` [dichloromethane] + CCCC[N+]1(C)CCCC1.O=C1O[B-]2(OC1=O)OC(=O)C(=O)O2, the activity coefficient stood at 0.745 ± 0.036 (333.15 K); 0.76 ± 0.037 (343.15 K); 0.774 ± 0.037 (353.15 K); 0.789 ± 0.037 (363.15 K); 0.803 ± 0.038 (373.15 K).

Turning to `CO` [methanol] + CCCC[N+]1(C)CCCC1.O=C1O[B-]2(OC1=O)OC(=O)C(=O)O2, the activity coefficient came out at 1.27 ± 0.06 (333.15 K); 1.19 ± 0.05 (343.15 K); 1.11 ± 0.05 (353.15 K); 1.05 ± 0.05 (363.15 K); 0.99 ± 0.043 (373.15 K).
